Experimental data reported in US20220089592A1, “IMIDAZO[1,2-A]PYRIDINYL DERIVATIVES AS IRAK4 INHIBITORS” (priority 2019, published 2022).

How the values were obtained:
IRAK4 [1] = target: T1, IRAK4 (Homo sapiens, UniProt Q9NWZ3); assay: 2-hour 10 μM ATP Biochemical Assay (MesoScale Detection format; IRAK4 phosphorylation of biotin labeled IRAK1 activation loop peptide); settings: IRAK4 MSD BIOCHEMICAL (10 μM ATP) IC50 (μM), 1 nM IRAK4, 2 hours
T1 sequence (Q9NWZ3 1-460): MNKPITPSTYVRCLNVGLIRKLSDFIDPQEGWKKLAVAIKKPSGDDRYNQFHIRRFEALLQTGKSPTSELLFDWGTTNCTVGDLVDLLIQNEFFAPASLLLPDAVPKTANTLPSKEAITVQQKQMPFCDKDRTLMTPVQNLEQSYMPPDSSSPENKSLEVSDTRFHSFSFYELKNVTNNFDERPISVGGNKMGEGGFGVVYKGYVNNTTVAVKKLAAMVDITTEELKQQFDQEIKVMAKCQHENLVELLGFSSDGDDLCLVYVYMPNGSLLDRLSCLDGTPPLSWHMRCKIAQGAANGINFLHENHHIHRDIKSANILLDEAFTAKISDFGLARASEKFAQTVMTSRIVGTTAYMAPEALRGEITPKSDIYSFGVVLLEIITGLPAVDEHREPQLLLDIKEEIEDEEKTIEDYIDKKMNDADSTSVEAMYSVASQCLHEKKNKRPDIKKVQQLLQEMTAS
Method in brief: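 Kinase reaction run 2 h at 10 μM ATP with biotinylated IRAK1 activation-loop peptide, quenched with EDTA. Phospho-peptide captured on streptavidin MSD plates and detected with anti-phosphothreonine rabbit antibody plus Sulfo-Tag anti-rabbit electrochemiluminescence.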

IRAK4 [2] = target: T1, IRAK4; assay: 2-hour 1 mM ATP IRAK4 Biochemical assay (as above, but with 100 pM IRAK4 and 1 mM ATP); settings: IRAK4 MSD BIOCHEMICAL (1 mM ATP) IC50 (μM), 100 pM IRAK4, 2 hours
Method in brief: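 Run with 100 pM IRAK4 and 1 mM ATP for 2 hours, quenched with EDTA pH 8. Phosphorylated biotinylated peptide captured on streptavidin MSD plates and detected with anti-phosphothreonine antibody plus Sulfo-Tag secondary by electrochemiluminescence.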

| SMILES | IC50 (IRAK4 [1]) [µM] | IC50 (IRAK4 [2]) [µM] |
| --- | --- | --- |
| CCOc1cc2nc(C3CC3)cn2cc1NC(=O)c1cccc(C(F)F)n1 [Example 3, N-(2-cyclopropyl-7-ethoxyimidazo[1,2-a]pyridin-6-yl)-6-(difluoromethyl)picolinamide] | 0.006 | 0.009 |
| CCOc1cc2nc(CC3CCOC3)cn2cc1NC(=O)c1ccn(C)n1 (centres unmarked) [Example 155, N-(7-ethoxy-2-((tetrahydrofuran-3-yl)methyl)imidazo[1,2-a]pyridin-6-yl)-1-methyl-1H-pyrazole-3-carboxamide] | 0.005 | 0.016 |
| CCOc1cc2nc(C3CCOCC3)cn2cc1NC(=O)c1cccc(COC)n1 [Example 364, N-(7-ethoxy-2-(tetrahydro-2H-pyran-4-yl)imidazo[1,2-a]pyridin-6-yl)-6-(methoxymethyl)picolinamide] | 0.004 | 0.013 |
| CCOc1cc2nc(C3CC(F)(F)C3)cn2cc1NC(=O)c1cccc(C(F)(F)F)n1 [Example 33, N-(2-(3,3-difluorocyclobutyl)-7-ethoxyimidazo[1,2-a]pyridin-6-yl)-6-(trifluoromethyl)picolinamide] | 0.003 | 0.011 |
| CCOc1cc2nc(C(C)(C)C#N)cn2cc1NC(=O)c1coc(C(F)F)n1 [Example 359, N-(2-(2-cyanopropan-2-yl)-7-ethoxyimidazo[1,2-a]pyridin-6-yl)-2-(difluoromethyl)oxazole-4-carboxamide] | 0.01 | 0.023 |
| CCOc1cc2nc(C3CCOCC3)cn2cc1NC(=O)c1ccn(C)n1 [Example 204, N-(7-ethoxy-2-(tetrahydro-2H-pyran-4-yl)imidazo[1,2-a]pyridin-6-yl)-1-methyl-1H-pyrazole-3-carboxamide] | 0.004 | 0.021 |
| CCOc1cc2nc(CC3CCOC3)cn2cc1NC(=O)c1ccn(CC(F)F)n1 (centres unmarked) [Example 125, 1-(2,2-difluoroethyl)-N-(7-ethoxy-2-((tetrahydrofuran-3-yl)methyl)imidazo[1,2-a]pyridin-6-yl)-1H-pyrazole-3-carboxamide] | 0.004 | 0.01 |
| CCOc1cc2nc(C(C)(C)C#N)cn2cc1NC(=O)c1csc(C)n1 [Example 241, N-(2-(2-cyanopropan-2-yl)-7-ethoxyimidazo[1,2-a]pyridin-6-yl)-2-methylthiazole-4-carboxamide] | 0.01 | 0.041 |
| CCOc1cc2nc(C3CCOCC3)cn2cc1NC(=O)c1ccn2c1CCC2 [Example 225, N-(7-ethoxy-2-(tetrahydro-2H-pyran-4-yl)imidazo[1,2-a]pyridin-6-yl)-2,3-dihydro-1H-pyrrolizine-7-carboxamide] | 0.009 | 0.029 |
| CCOc1cc2nc(Cn3ccccc3=O)cn2cc1NC(=O)c1cccc(C(F)F)n1 [Example 87, 6-(difluoromethyl)-N-(7-ethoxy-2-((2-oxopyridin-1(2H)-yl)methyl)imidazo[1,2-a]pyridin-6-yl)picolinamide] | 0.004 | 0.017 |
| CCOc1cc2nc(C(O)C3CC3)cn2cc1NC(=O)c1cccc(C(F)(F)F)n1 (centres unmarked) [Example 168, N-(2-(cyclopropyl(hydroxy)methyl)-7-ethoxyimidazo[1,2-a]pyridin-6-yl)-6-(trifluoromethyl)picolinamide] | 0.007 | 0.015 |
| CC1(COc2cc3nc(C4CC4)cn3cc2NC(=O)c2cccc(C(F)F)n2)COC1 [Example 50, N-(2-cyclopropyl-7-((3-methyloxetan-3-yl)methoxy)imidazo[1,2-a]pyridin-6-yl)-6-(difluoromethyl)picolinamide] | 0.004 | 0.014 |
| CCOc1nc(NC(=O)c2cccc(OC)n2)cn2cc(C3CCOCC3)nc12 [Example 147, N-(8-ethoxy-2-(tetrahydro-2H-pyran-4-yl)imidazo[1,2-a]pyrazin-6-yl)-6-methoxypicolinamide] | 0.011 | 0.051 |
| CCOc1cc2nc(CCOC)cn2cc1NC(=O)c1cccc(C(F)F)n1 [Example 13, 6-(difluoromethyl)-N-(7-ethoxy-2-(2-methoxyethyl)imidazo[1,2-a]pyridin-6-yl)picolinamide] | 0.002 | 0.003 |
| CCOc1cc2nc(C(F)F)cn2cc1NC(=O)c1cccc(C(F)(F)F)n1 [Example 57, N-(2-(difluoromethyl)-7-ethoxyimidazo[1,2-a]pyridin-6-yl)-6-(trifluoromethyl)picolinamide] | 0.003 | 0.008 |
| CCOc1cc2nc(C3CCOC3)cn2cc1NC(=O)c1cccc(C(F)(F)F)n1 (centres unmarked) [Example 59, N-(7-ethoxy-2-(tetrahydrofuran-3-yl)imidazo[1,2-a]pyridin-6-yl)-6-(trifluoromethyl)picolinamide] | 0.002 | 0.003 |

More lines, in order of falling IC50 (IRAK4 [1]), values ahead:

| IC50 (IRAK4 [1]) [µM] | IC50 (IRAK4 [2]) [µM] | SMILES |
| --- | --- | --- |
| 0.002 | 0.006 | CC1(COc2cc3nc(C[C@H]4CCOC4)cn3cc2NC(=O)c2cccc(C(F)(F)F)n2)COC1 (single isomer, unassigned) [Example 165] |
| 0.002 | 0.01 | CCOc1cc2nc(C3CCOCC3)cn2cc1NC(=O)c1cccc(OC2CC2)n1 [Example 361, 6-cyclopropoxy-N-(7-ethoxy-2-(tetrahydro-2H-pyran-4-yl)imidazo[1,2-a]pyridin-6-yl)picolinamide] |
| 0.002 | 0.006 | CCOc1cc2nc(CC3CCCO3)cn2cc1NC(=O)c1cccc(C(F)(F)F)n1 (centres unmarked) [Example 60, N-(7-ethoxy-2-((tetrahydrofuran-2-yl)methyl)imidazo[1,2-a]pyridin-6-yl)-6-(trifluoromethyl)picolinamide] |
| 0.002 | 0.002 | CCOc1cc2nc(CC3CCOC3)cn2cc1NC(=O)c1ccn(C(F)F)n1 (centres unmarked) [Example 124, 1-(difluoromethyl)-N-(7-ethoxy-2-((tetrahydrofuran-3-yl)methyl)imidazo[1,2-a]pyridin-6-yl)-1H-pyrazole-3-carboxamide] |
| 0.002 | 0.007 | CC1(COc2cc3nc(CC4CCOC4)cn3cc2NC(=O)c2cccc(C(F)(F)F)n2)COC1 (centres unmarked) [Example 163, N-(7-((3-methyloxetan-3-yl)methoxy)-2-((tetrahydrofuran-3-yl)methyl)imidazo[1,2-a]pyridin-6-yl)-6-(trifluoromethyl)picolinamide] |
| 0.001 | 0.001 | CCOc1cc2nc([C@H](C)[C@H]3CCOC3)cn2cc1NC(=O)c1cccc(C(F)(F)F)n1 (single isomer, unassigned) [Example 141] |
| 0.001 | 0.001 | CCOc1cc2nc(C3CCCC(=O)N3C)cn2cc1NC(=O)c1cccc(C(F)F)n1 (centres unmarked) [Example 246, 6-(difluoromethyl)-N-(7-ethoxy-2-(1-methyl-6-oxopiperidin-2-yl)imidazo[1,2-a]pyridin-6-yl)picolinamide] |
| 0.001 | 0.001 | CCOc1cc2nc(C3CN(C)C3)cn2cc1NC(=O)c1cccc(C(F)(F)F)n1 [Example 65, N-(7-ethoxy-2-(1-methylazetidin-3-yl)imidazo[1,2-a]pyridin-6-yl)-6-(trifluoromethyl)picolinamide] |
| 0.001 | 0.001 | CCOc1cc2nc([C@H]3C[C@H](O)C3)cn2cc1NC(=O)c1cccc(C(F)F)n1 [Example 96] |
| 0.001 | 0.001 | CCOc1cc2nc(C3CCNC3)cn2cc1NC(=O)c1cccc(C(F)(F)F)n1 (centres unmarked) [Example 62, N-(7-ethoxy-2-(pyrrolidin-3-yl)imidazo[1,2-a]pyridin-6-yl)-6-(trifluoromethyl)picolinamide] |
| 0.001 | 0.004 | CCOc1cc2nc(Cn3cncn3)cn2cc1NC(=O)c1cccc(C(F)F)n1 [Example 82, N-(2-((1H-1,2,4-triazol-1-yl)methyl)-7-ethoxyimidazo[1,2-a]pyridin-6-yl)-6-(difluoromethyl)picolinamide] |
| 0.001 | 0.002 | CN1CCC(Oc2cc3nc(C4CCOCC4)cn3cc2NC(=O)c2cccc(C(F)F)n2)C1=O (centres unmarked) [Example 181, 6-(difluoromethyl)-N-(7-((1-methyl-2-oxopyrrolidin-3-yl)oxy)-2-(tetrahydro-2H-pyran-4-yl)imidazo[1,2-a]pyridin-6-yl)picolinamide] |
| 0.001 | 0.001 | CCOc1cc2nc(C34CC(CO)(C3)C4)cn2cc1NC(=O)c1cccc(C(F)F)n1 [Example 130, 6-(difluoromethyl)-N-(7-ethoxy-2-(3-(hydroxymethyl)bicyclo[1.1.1]pentan-1-yl)imidazo[1,2-a]pyridin-6-yl)picolinamide] |
| 0.001 | 0.001 | CC1(C)CCC(Oc2cc3nc(C4CCOCC4)cn3cc2NC(=O)c2cccc(C(F)F)n2)C1 (centres unmarked) [Example 180, 6-(difluoromethyl)-N-(7-((3,3-dimethylcyclopentyl)oxy)-2-(tetrahydro-2H-pyran-4-yl)imidazo[1,2-a]pyridin-6-yl)picolinamide] |
| 0.001 | 0.001 | CCOc1cc2nc(CCC(C)(C)O)cn2cc1NC(=O)c1cccc(C(F)F)n1 [Example 27, 6-(difluoromethyl)-N-(7-ethoxy-2-(3-hydroxy-3-methylbutyl)imidazo[1,2-a]pyridin-6-yl)picolinamide] |
